Measured values taken from ChEMBL document CHEMBL1133599, “Inhibitors of tripeptidyl peptidase II. 2. Generation of the first novel lead inhibitor of cholecystokinin-8-inactivating peptidase: a strategy for the design of peptidase inhibitors” (J Med Chem, 2000).
Where a SMILES comes first, the peptide text is derived from it. [ ]: non-standard residue; d: D form. The star is where a group is joined. 2Nal = N[C@@H](Cc1ccc2ccccc2c1)C(=O)O; hPhe = N[C@@H](CCc1ccccc1)C(=O)O; Cha = N[C@@H](CC1CCCCC1)C(=O)O; Phg = N[C@H](C(=O)O)c1ccccc1; Nle = CCCC[C@H](N)C(=O)O; Nva = CCC[CH](N)C(=O)O; Cbz = O=C(OCc1ccccc1)*; Bn = c1ccc(C*)cc1; NHBu = CCCCN*

Molecular target: Tripeptidyl-peptidase 2 (Rattus norvegicus, UniProt Q64560)
Sequence (Q64560 whole entry): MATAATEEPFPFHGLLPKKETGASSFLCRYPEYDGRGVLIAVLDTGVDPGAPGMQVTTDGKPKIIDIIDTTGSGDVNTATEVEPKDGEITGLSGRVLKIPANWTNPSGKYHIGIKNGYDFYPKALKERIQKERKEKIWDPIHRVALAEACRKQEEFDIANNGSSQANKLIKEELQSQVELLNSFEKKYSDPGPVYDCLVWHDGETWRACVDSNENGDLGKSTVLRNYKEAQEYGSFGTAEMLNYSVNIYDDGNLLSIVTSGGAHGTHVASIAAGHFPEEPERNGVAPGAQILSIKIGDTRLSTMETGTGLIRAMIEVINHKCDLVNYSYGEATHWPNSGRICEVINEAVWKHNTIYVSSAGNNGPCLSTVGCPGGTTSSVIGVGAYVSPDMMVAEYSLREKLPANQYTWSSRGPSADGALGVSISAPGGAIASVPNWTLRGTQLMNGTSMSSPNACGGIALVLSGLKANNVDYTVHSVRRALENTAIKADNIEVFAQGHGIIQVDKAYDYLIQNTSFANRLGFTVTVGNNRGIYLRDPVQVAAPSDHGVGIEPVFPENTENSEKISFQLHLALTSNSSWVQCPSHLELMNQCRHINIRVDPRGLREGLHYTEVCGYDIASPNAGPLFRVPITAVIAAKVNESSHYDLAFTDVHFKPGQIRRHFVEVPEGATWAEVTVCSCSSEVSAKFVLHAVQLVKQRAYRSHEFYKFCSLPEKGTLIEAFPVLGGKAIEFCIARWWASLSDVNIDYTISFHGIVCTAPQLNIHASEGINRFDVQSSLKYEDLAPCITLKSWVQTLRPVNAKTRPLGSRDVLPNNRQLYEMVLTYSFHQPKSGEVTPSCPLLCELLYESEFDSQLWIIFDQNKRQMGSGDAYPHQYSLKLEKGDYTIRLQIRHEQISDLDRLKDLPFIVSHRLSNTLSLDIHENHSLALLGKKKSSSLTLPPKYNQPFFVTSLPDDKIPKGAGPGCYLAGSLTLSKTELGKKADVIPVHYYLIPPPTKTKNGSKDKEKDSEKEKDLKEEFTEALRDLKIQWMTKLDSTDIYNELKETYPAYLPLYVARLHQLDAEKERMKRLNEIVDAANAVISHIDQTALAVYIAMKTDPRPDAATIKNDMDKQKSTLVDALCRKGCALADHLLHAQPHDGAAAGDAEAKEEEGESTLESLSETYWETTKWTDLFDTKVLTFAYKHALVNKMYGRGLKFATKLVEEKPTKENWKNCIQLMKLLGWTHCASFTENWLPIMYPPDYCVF
Assay: Inhibition potency against Cholecystokinin-8-Inactivating Peptidase (Serine Peptidase).

SMILES | Ki
CC(C)[C@H](N)C(=O)NCCc1ccccc1 | 114 µM
CC(C)[C@H](N)C(=O)NC(CO)Cc1ccccc1 (stereo partly drawn) | 2100 µM
CC(C)[C@H](N)C(=O)NCCCc1ccccc1 | 86 µM
CC(C)[C@H](N)C(=O)NCCCCc1ccccc1 | 33 µM
CCCCOC(=O)C(CCCC)NC(=O)C(NC(=O)OCc1ccccc1)C(C)C (stereo not drawn) | > 3000 µM
CC(C)[C@H](N)C(=O)NCc1ccccc1 | 80 µM
C[C@H](N)C(=O)N[C@@H](C)C(=O)N[C@@H](C)C(=O)O | 14 µM
CCCCOC(=O)[C@H](Cc1ccccc1)NC(=O)[C@@H](N)C(C)C | 230 µM
CCCC[C@H](NC(=O)[C@@H](N)CCCC)C(=O)NC | 9 µM
CCCCOC(=O)[C@H](CCCC)NC(=O)[C@@H](N)C(C)C | 290 µM
CCCC[C@H](NC)C(=O)N[C@@H](CCCC)C(=O)NC | > 3000 µM
CCCCOC(=O)N[C@H](C(=O)N[C@@H](CCCC)C(=O)O)C(C)C | > 5000 µM
CCCC[C@H](NC(=O)[C@@H](N)CCCC)C(=O)O | 1430 µM
CCC[C@H](NC(=O)[C@@H](NCc1ccccc1)C(C)C)C(=O)O | > 5000 µM
CSCC[C@@H](NC(=O)[C@@H](N)C(C)C)C(=O)O | 2000 µM
CSCC[C@@H](N)C(=O)N[C@@H](Cc1ccc(O)cc1)C(=O)O | 2000 µM
CCCC[C@H](NC)C(=O)N[C@@H](CCCC)C(=O)OC | > 5000 µM
CCCC[C@H](NC(=O)[C@@H](N)C(C)C)C(=O)NCCCc1ccccc1 | 29 µM
CCCC[C@H](NCc1ccccc1)C(=O)N[C@@H](CCCC)C(=O)NC | > 3000 µM
CC(N)C(=O)NC(C)C(=O)O (stereo not drawn) | 5000 µM

SMILES | Ki
C[C@H](N)C(=O)N[C@@H](Cc1ccccc1)C(=O)O | 1140 µM
CCC[C@H](NC(=O)[C@@H](NC(C)=O)C(C)C)C(=O)O (Ac-Val-[Nva]-OH) | > 500 µM
CC(C)C(NC(=O)C(NC(=O)OCc1ccccc1)C(C)C)C(=O)O (stereo not drawn) (Cbz-Val-Val-OH; configuration not given here) | > 5000 µM
CCCC(NC(=O)C(NC(=O)OCc1ccccc1)C(C)C)C(=O)O (stereo not drawn) (Cbz-Val-[Nva]-OH; configuration not given here) | > 5000 µM
C[C@H](N)C(=O)N[C@@H](C)C(=O)N1CCC[C@H]1C(=O)N[C@@H](C)C(=O)O (H-AAPA-OH) | 114 µM
C[C@H](N)C(=O)N1CCC[C@H]1C(=O)N[C@@H](C)C(=O)O (H-Ala-Pro-Ala-OH) | 3 µM
C[C@H](N)C(=O)N1CCC[C@H]1C(=O)O (H-Ala-Pro-OH) | 1400 µM
CSCC[C@H](NC(=O)[C@H](Cc1ccc(O)cc1)NC(=O)[C@@H](N)CC(=O)O)C(=O)O (H-Asp-Tyr-Met-OH) | 50 µM
N[C@@H](CC(=O)O)C(=O)N[C@@H](Cc1ccc(O)cc1)C(=O)O (H-Asp-Tyr-OH) | > 5000 µM
NCC(=O)NCC(=O)N[C@@H](Cc1ccccc1)C(=O)O (H-Gly-Gly-Phe-OH) | 110 µM
NCC(=O)N[C@@H](Cc1ccccc1)C(=O)O (H-Gly-Phe-OH) | 470 µM
CSCC[C@H](NC(=O)[C@H](Cc1c[nH]c2ccccc12)NC(=O)CN)C(=O)O (H-Gly-Trp-Met-OH) | 20 µM
NCC(=O)N[C@@H](Cc1c[nH]c2ccccc12)C(=O)O (H-Gly-Trp-OH) | 650 µM
CC(C)[C@H](NC(=O)CN)C(=O)N[C@@H](Cc1ccccc1)C(=O)O (H-Gly-Val-Phe-OH) | 29 µM
CC(C)[C@H](N)C(=O)N[C@@H](C)C(=O)O (H-Val-Ala-OH) | 9000 µM
CCCCNC(=O)[C@H](Cc1ccccc1)NC(=O)[C@@H](N)C(C)C (H-Val-Phe-NHBu) | 20 µM
CNC(=O)[C@H](Cc1ccccc1)NC(=O)[C@@H](N)C(C)C (H-Val-Phe-NHMe) | 22 µM
COC(=O)[C@H](Cc1ccccc1)NC(=O)[C@@H](N)C(C)C (H-Val-Phe-OMe) | 260 µM
CC(C)C(N)C(=O)NC(Cc1ccc(OCc2ccccc2)cc1)C(=O)O (stereo not drawn) (H-Val-Tyr(Bn)-OH; configuration not given here) | 210 µM
CNC(=O)[C@H](Cc1ccc(O)cc1)NC(=O)[C@@H](N)C(C)C (H-Val-Tyr-NHMe) | 11 µM

SMILES | Ki
CC(C)[C@H](N)C(=O)N[C@@H](Cc1ccc(O)cc1)C(=O)O (H-Val-Tyr-OH) | 857 µM
CNC(=O)[C@@H](NC(=O)[C@@H](N)C(C)C)C(C)C (H-Val-Val-NHMe) | 46 µM
CC(C)[C@H](N)C(=O)N[C@@H](Cc1ccc2ccccc2c1)C(=O)O (H-Val-[2Nal]-OH) | 60 µM
CCCCNC(=O)[C@H](CC1CCCCC1)NC(=O)[C@@H](N)C(C)C (H-Val-[Cha]-NHBu) | 57 µM
CC(C)[C@H](N)C(=O)N[C@@H](CC1CCCCC1)C(=O)O (H-Val-[Cha]-OH) | 3000 µM
CCCCNC(=O)[C@H](CCCC)NC(=O)[C@@H](N)C(C)C (H-Val-[Nle]-NHBu) | 14 µM
CCCC[C@H](NC(=O)[C@@H](N)C(C)C)C(=O)NC (H-Val-[Nle]-NHMe) | 66 µM
CCCC[C@H](NC(=O)[C@@H](N)C(C)C)C(=O)O (H-Val-[Nle]-OH) | 860 µM
CCCCNC(=O)[C@H](CCC)NC(=O)[C@@H](N)C(C)C (H-Val-[Nva]-NHBu) | 3 µM
CCC[C@H](NC(=O)[C@@H](N)C(C)C)C(=O)NC (H-Val-[Nva]-NHMe) | 28 µM
CCC[C@H](NC(=O)[C@@H](N)C(C)C)C(=O)O (H-Val-[Nva]-OH) | 433 µM
CNC(=O)[C@@H](NC(=O)[C@@H](N)C(C)C)c1ccccc1 (H-Val-[Phg]-NHMe) | 29 µM
CC(C)[C@H](N)C(=O)N[C@H](C(=O)O)c1ccccc1 (H-Val-[Phg]-OH) | 600 µM
CC(C)[C@H](N)C(=O)N[C@@H](CCc1ccccc1)C(=O)O (H-Val-[hPhe]-OH) | 570 µM
CCC[C@H](NC(=O)[C@@H](N)CCC)C(=O)O (H-[Nva]-[Nva]-OH) | 1000 µM
CSCC[C@@H](N)C(=O)N[C@H](CCSC)C(=O)O (H-[dM]-[dM]-OH) | > 5000 µM
CC[C@H](C)[C@H](N)C(=O)N1CCC[C@H]1C(=O)N[C@H](C(=O)O)[C@@H](C)CC [DIPROTIN A] | 1 µM
CC(C)[C@H](N)C(=O)N[C@H](C(=O)O)C(C)C [VAL-VAL] (H-Val-Val-OH) | 1670 µM
